Data as given in patent US20170157135A1 (Novogen Limited, priority 2013, published 2017).

Key:
[1] = tested on: MDA-MB-231 breast cancer cells; assay: Anti-proliferative assay (cell-titre luminescent), MDA-MB-231; format: cell-based; details: Homo sapiens; MDA-MB-231, 72 hours, luminescence
In short: (§1)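 Cells were seeded at pre-determined densities in ATCC-recommended media and allowed to attach for 24 h at 37° C and 5% CO2. Compounds were then added at 30, 10, 3, 1, 0.3 and 0.1 μM for 72 hours, followed by cell-titre luminescent reagent for 30 minutes. EC50 values came from variable-slope sigmoidal fits of vehicle-normalized viability.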

[2] = tested on: SK-N-SH neuroblastoma cells; assay: Anti-proliferative assay (cell-titre luminescent), SK-N-SH; format: cell-based; details: Homo sapiens, 72 hours, luminescence
In short: as §1

SK-Mel-28 melanoma cells = assay: Anti-proliferative assay (cell-titre luminescent), SK-Mel-28; format: cell-based; details: Homo sapiens; SK-Mel-28, 72 hours, luminescence
In short: as §1

[3] = tested on: PC3 prostate cancer cells; assay: Anti-proliferative assay (cell-titre luminescent), PC3; format: cell-based; details: PC3, 72 hours, luminescence
In short: as §1

actin cytoskeleton = assay: Microfilament disruption assay (phalloidin actin staining); format: cell-based; details: 24 hours
Procedure: In silico modeling has identified binding sites on tropomyosin Tm5NM1, yielding the series of tropomyosin inhibitors the subject of the present invention. Inhibition of Tm5NM1 in tumour cells results in disruption of the actin cytoskeleton and ultimately cell death. The ability of compounds 2001-2012 to disrupt the actin cytoskeleton was assessed in vitro using the microfilament disruption assay. Briefly, cells were seeded (5×10^3/well) into 8-well chamber slides (NUNC) and treated with the concentrations of anti-tropomyosin compounds nominated in Table 1 for 24 hours using DMSO as vehicle control. Actin was visualized with Alexa 555 conjugated phalloidin (Molecular probes). Random fields were imaged using an Olympus IX81 microscope. Cells (n>50) were scored on the basis of positive filament staining from n=3 independent experiments.

[4] = tested on: SKMEL28 melanoma (SK-MeI-28) cells; assay: Cell viability assay (MTT), SKMEL28; format: cell-based; details: Homo sapiens, SK-MEL-28, 48 hr treatment
Procedure: (§2) Cell viability assays were also conducted to assess the anti-proliferative effects of the anti-tropomyosin compounds. Briefly, cells (1×10^3/well) were plated (96-well) and treated (48 hr) with anti-tropomyosin drug and viability measured using 3-(4,5-dimethylthiazol-2-yl)-2,5-diphenylterazolium bromide MTT. Cell viability was normalized to control (vehicle alone) and dose-response curves, and half maximal effective concentration (EC50) values were determined using Graph Pad Prism 5 (nonlinear regression sigmoidal dose-response variable slope).

[5] = tested on: DU145 prostate cancer cells; assay: Anti-proliferative assay (cell-titre luminescent), DU145; format: cell-based; details: Homo sapiens, DU-145; DU145, 72 hours, luminescence
In short: as §1

A549 lung (NSLC) cells = assay: Anti-proliferative assay (cell-titre luminescent), A549; format: cell-based; details: Homo sapiens; A549, 72 hours, luminescence
In short: as §1

[6] = tested on: CaCo2 colorectal cancer cells; assay: Anti-proliferative assay (cell-titre luminescent), CaCo2; format: cell-based; details: Homo sapiens, Caco-2; CaCo2, 72 hours, luminescence
In short: as §1

[7] = tested on: SHEP neuroblastoma (SH-EP) cells; assay: Cell viability assay (MTT), SHEP; format: cell-based; details: 48 hr treatment
Procedure: as §2

Tm5NM1 = Tm5NM1 (Homo sapiens, UniProt P06753); assay: Pyrene-based actin filament depolymerization assay, Tm5NM1-containing actin filaments; format: biochemical; details: 50 μM compound, p=0.1 vs F-actin alone
Chain of Tm5NM1 (P06753 1-248 isoform P06753-2): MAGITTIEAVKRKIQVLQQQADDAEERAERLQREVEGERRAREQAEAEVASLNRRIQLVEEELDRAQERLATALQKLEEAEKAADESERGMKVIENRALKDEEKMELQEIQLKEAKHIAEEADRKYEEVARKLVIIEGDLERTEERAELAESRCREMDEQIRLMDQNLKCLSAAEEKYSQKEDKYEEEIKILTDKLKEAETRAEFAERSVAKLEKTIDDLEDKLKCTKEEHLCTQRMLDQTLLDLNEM
Procedure: FIG. 1: Impact of compound 2026 on Tm5NM1-regulated actin-filament depolymerization kinetics. (A and C) Depolymerization time course of 6 μM actin filaments (35% pyrene labelled) diluted 12-fold into F-actin buffer (100 mM NaCl, 10 mM Tris-HCl pH 7.0, 2 mM MgCl2, 1 mM EGTA, 0.2 mM CaCl2, 0.2 mM ATP, 0.5 mM DTT, 0.01% (v/v) NaN3) in the presence or absence of saturating amounts (10 μM) of Tm5NM1. Final concentration of F-actin and Tm5NM1 was 0.5 μM and 0.83 μM respectively. Tm5NM1 was pre-incubated with 50 μM compound 2026 or 1% (v/v) DMSO prior to mixing with F-actin. Depolymerization data is normalized to the initial fluorescence value. (B and D) Initial rates (V0) of depolymerization for F-actin alone or Tm5NM1/F-actin, in the presence of compound 2026. Initial rates of depolymerization were determined from the first 3600 s, fitted to a linear regression model. Data represents mean±SEM, averaged from n>6 replicates.
A brief overview and rationale of the assay is as follows: to promote depolymerization, pyrene-labelled actin filaments were diluted below the critical concentration of the pointed end (0.5 μM, as defined by Pollard et al., 1986). A decline in fluorescence was measured over time as actin monomers dissociate. […]
The depolymerization of F-actin alone and F-actin-coated with Tm5NM1 was then measured in the presence of compound and initial rates of depolymerization were compared. […]

SMILES	IC50 [1] [µM]	IC50 [2] [µM]	IC50 (SK-Mel-28 melanoma cells) [µM]	IC50 [3] [µM]	Microfilament disruption 10 μM (actin cytoskeleton)	IC50 [4] [µM]	IC50 [5] [µM]	IC50 (A549 lung (NSLC) cells) [µM]	IC50 [6] [µM]	IC50 [7] [µM]	Effect on Tm5NM1 function (protection of actin filaments from depolymerization) (Tm5NM1)
Cc1c(/C=C/C(=O)N2CCN(CCc3ccc(F)cc3)CC2)c2ccccc2n1CCCN(C)C [Compound 2002, (E)-3-(1-(3-(dimethylamino)propyl)-2-methyl-1H-indol-3-yl)-1-(4-(4-fluorophenethyl)piperazin-1-yl)prop-2-en-1-one]	11.5	12.2	5.7	22.5	no cells	2.01	11.1	11.9	23.5	9.6	–
Cc1c(/C=C/C(=O)N2CCN(Cc3ccc(F)cc3)CC2)c2ccccc2n1CCCN(C)C [Compound 2003, (E)-3-(1-(3-(dimethylamino)propyl)-2-methyl-1H-indol-3-yl)-1-(4-(4-fluorobenzyl)piperazin-1-yl)prop-2-en-1-one]	–	–	–	–	no cells	3.1	–	–	–	2.3	–
Cc1c(/C=C/C(=O)N2CCN(CCc3ccccc3)CC2)c2ccccc2n1CCN(C)C [Compound 2006, (E)-3-(1-(2-(dimethylamino)ethyl)-2-methyl-1H-indol-3-yl)-1-(4-phenethylpiperazin-1-yl)prop-2-en-1-one]	–	–	–	–	–	157	–	–	–	12.5	–
Cc1c(/C=C/C(=O)N2CCN(CCc3ccccc3)CC2)c2ccccc2n1CCCN1CCOCC1 [Compound 2007, (E)-3-(2-methyl-1-(3-morpholinopropyl)-1H-indol-3-yl)-1-(4-phenethylpiperazin-1-yl)prop-2-en-1-one]	–	–	–	–	–	33.1	–	–	–	24	–
Cc1c(/C=C/C(=O)N2CCN(CCc3ccccc3)CC2)c2ccccc2n1CCCN1CCN(C)CC1 [Compound 2008, (E)-3-(2-methyl-1-(3-(4-methylpiperazin-1-yl)propyl)-1H-indol-3-yl)-1-(4-phenethylpiperazin-1-yl)prop-2-en-1-one]	–	–	–	–	no cells	3.7	–	–	–	1.92	–
COc1ccc2c(c1)c(/C=C/C(=O)N1CCN(CCc3ccccc3)CC1)c(C)n2CCCN(C)C [Compound 2009, (E)-3-(1-(3-(dimethylamino)propyl)-5-methoxy-2-methyl-1H-indol-3-yl)-1-(4-phenethylpiperazin-1-yl)prop-2-en-1-one]	30	10.8	6.5	30	no cells	1.86	14.3	54.3	16.1	2.4	–
COc1ccc(CN2CCN(C(=O)/C=C/c3c(C)n(CCCN(C)C)c4ccccc34)CC2)cc1 [Compound 2010, (E)-3-(1-(3-(dimethylamino)propyl)-2-methyl-1H-indol-3-yl)-1-(4-(4-methoxybenzyl)piperazin-1-yl)prop-2-en-1-one]	–	–	–	–	–	2.75	–	–	–	3.2	–
Cc1c(/C=C/C(=O)NCCc2ccccc2)c2ccccc2n1CCCN(C)C [Compound 2011, (E)-3-(1-(3-(dimethylamino)propyl)-2-methyl-1H-indol-3-yl)-N-phenethylacrylamide]	–	–	–	–	–	12.1	–	–	–	13.2	–
Cc1nc(-c2cn(CCCN(C)C)c3ccccc23)cc(N2CCN(CCc3ccccc3)CC2)n1 [Compound 2012, N,N-dimethyl-3-(3-(2-methyl-6-(4-phenethylpiperazin-1-yl)pyrimidin-4-yl)-1H-indol-1-yl)propan-1-amine]	–	–	–	–	–	3.2	–	–	–	21.7	–
CCN(CC)CCCn1c(C)c(/C=C/C(=O)N2CCN(CCc3cccc(F)c3)CC2)c2cc(OC)ccc21 [Compound 2026, (E)-3-(1-(3-(diethylamino)propyl)-5-methoxy-2-methyl-1H-indol-3-yl)-1-(4-(3-fluorophenethyl)piperazin-1-yl)prop-2-en-1-one]	4.3	2.5	1.7	5.2	–	–	9.8	3.4	4.1	–	interacts with and impairs Tm5NM1 function
